The target of series [1] is T1, aldose reductase (ALR2) (Bos taurus, UniProt P16116).
T1 construct: The enzyme aldose reductase was extracted from calf lenses; from tissue; host or cells: calf lenses
The series is described as follows: ALR2 enzyme inhibition assay. It is filed as biochemical, calf. The note with it: for IC50: substrate D,L-glyceraldehyde, cofactor NADPH, pH 6.2, 340 nm, read-out: ALR2 IC50 ± SEM. The method, then: (§1) The newly synthesized of 5-benzylidene rhodanine-3-acetamide derivatives 3(a–g) were evaluated for in vitro enzyme inhibitory potential on aldehyde and aldose reductase enzymes. […] IC50 ± SEM (µM) values were calculated for the compounds showing more than 50% inhibition against both the isozymes, (Table 1).
(§2) All required chemicals used in the enzyme extraction procedure were of high analytical grade. Enzyme inhibitory assay was performed on ELISA microplate reader at 340 nm and 96 well-plates were used for the sample analysis. Micropipettes from Gilson were used for sample loading. Sodium-D-glucoronate and D,L-glyceraldehyde were used as substrates along with a cofactor i.e. NADPH (nicotinamide adenine dinucleotide phosphate) from Sigma Aldrich.
The enzyme aldose reductase was extracted from calf lenses. 200–300 g lenses were added to triple volume of cold water and homogenized for 20 min. The homogenate was then centrifuged at 10,000 rpm for 15 min at 4 °C. The insoluble precipitates were discarded and the supernatant was saturated with 70% ammonium sulfate and after centrifugation at 10,000 rpm at 4 °C for 15 min the supernatant was dialyzed overnight and the protein contents was calculated via Bradford method and the crude aldose reductase was stored at −80 °C [31].
The assay was performed on ELISA (Bio-Tek ELx800™ Instrument, Inc. USA) based spectrophotometric analysis in 96 well plate. The assay mixture was composed of 20 µL buffer (100 mM potassium dihydrogen phosphate pH 6.2), 10 µL test compound (1 mM), 70 µL enzyme and incubated for 10 min at 37 °C followed by addition of 40 µL substrate (D,L-glyceraldehyde 50 mM for ALR2) and 50 µL NADPH (0.5 mM) (nicotinamide adenine dinucleotide phosphate) as a co-factor. After 30 min incubation optical density was measured at 340 nm.
(§3) Results were analyzed by graph pad prism® software to calculate IC50 and percentage inhibition was calculated by the following formula.
(§4) % Inhibition = […].

For series [2], the target named is aldehyde reductase (ALR1) (Ovis aries, UniProt A0ACI6RLT8). The series is described as follows: ALR1 enzyme inhibition assay. Type of series: biochemical, lamb. The note with it: for selectivity towards ALR1 over ALR2: from IC50 values on ALR1 and ALR2. The method, then: as §1, §2
Sequence of aldehyde reductase (ALR1) (A0ACI6RLT8 entry or part of it): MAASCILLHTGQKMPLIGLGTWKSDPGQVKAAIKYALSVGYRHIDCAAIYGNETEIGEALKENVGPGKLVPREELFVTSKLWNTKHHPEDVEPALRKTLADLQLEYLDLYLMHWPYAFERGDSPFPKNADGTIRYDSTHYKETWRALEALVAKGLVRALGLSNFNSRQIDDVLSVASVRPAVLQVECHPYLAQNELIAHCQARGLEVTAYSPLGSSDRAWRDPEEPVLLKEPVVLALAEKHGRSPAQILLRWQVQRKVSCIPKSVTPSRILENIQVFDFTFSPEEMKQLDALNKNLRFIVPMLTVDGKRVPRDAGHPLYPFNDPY
Aldehyde reductase enzyme was extracted from lamb kidney and the cortical part was separated carefully. The cortex was homogenized in triple volume of extraction buffer (2.0 mM EDTA, 0.25 M sucrose, 10 mM sodium phosphate and 2.5 mM β-mercaptoethanol at pH 7.2). The homogenate was centrifuged at 12,000 rpm at 4 °C for 30 min, the insoluble precipitates were discarded and the supernatant was saturated with 40%, 50% and 75% ammonium sulfate respectively and after each addition the solution was centrifuged at 12,000 rpm at 4 °C for 30 min, each time the pallet was discarded and for the last saturation the supernatant was taken and dialyzed overnight in extraction buffer. Next day the protein content was calculated via Bradford method and the crude aldehyde reductase was stored at − 80 °C [30].
The assay was performed on ELISA (Bio-Tek ELx800TM Instrument, Inc. USA) based spectrophotometric analysis in 96 well plate. The assay mixture was composed of 20 µL buffer (100 mM potassium dihydrogen phosphate pH 6.2), 10 µL test compound (1 mM), 70 µL enzyme and incubated for 10 min at 37 °C followed by addition of 40 µL Glucoronate 50 mM (as a substrate) and 50 µL (0.5 mM) NADPH (nicotinamide adenine dinucleotide phosphate) as a co-factor. After 30 min incubation optical density was measured at 340 nm.
as §3, §4

Where [3] appears, read: substrate sodium D-glucuronate, cofactor NADPH, pH 6.2, 340 nm, read-out: ALR1 IC50 ± SEM.

Where two headings read alike, the source gives them in different places.

As for `CC1=C(CC(=O)O)c2cc(F)ccc2/C1=C\c1ccc([S+](C)[O-])cc1` (centres unmarked) [Sulindac, reference compound], the IC50 (commonly the concentration that inhibits the measured activity by half) in series [1] stood at 0.29 ± 0.08 µM.

For the compound `COc1cc(/C=C2\SC(=S)N(CC(=O)Nc3ccc(C(=O)O)c(O)c3)C2=O)ccc1O` [Compound 3c, 2-Hydroxy-4-({[(Z)-5-(4-hydroxy-3-methoxybenzylidene)-4-oxo-2-thioxo-1,3-thiazolidin-3-yl]acetyl}amino)benzoic acid], the IC50 came out at 6.38 ± 0.01 µM in series [1] and 2.38 ± 0.02 µM in series [2] (setting [3]).

For the compound `COc1cc(/C=C2\SC(=S)N(CC(=O)Nc3ccc(C(=O)O)cc3)C2=O)ccc1O` [Compound 3d, 4-({[(Z)-5-(4-hydroxy-3-methoxybenzylidene)-4-oxo-2-thioxo-1,3-thiazolidin-3-yl]acetyl}amino)benzoic acid], the melting point (as a rule, the temperature, or range, at which the solid turns liquid) lay within 217 to 219 °C. Further, the IC50 in series [1] was determined as 7.36 ± 0.02 µM. For the same compound, the “selectivity towards ALR1 over ALR2” value in series [2] is “more selective and potent inhibitors of ALR1”. In series [2] (setting [3]), the IC50 turned out to be 3.76 ± 0.09 µM.

For `COc1cc(/C=C2\SC(=S)N(CC(=O)Nc3ccccc3)C2=O)ccc1O` [Compound 3a, (Z)-5-(4-hydroxy-3-methoxybenzylidene)-3-(2-anilino-2-oxoethyl)-2-thioxothiazolidin-4-one], the IC50 in series [1] worked out at 0.25 ± 0.04 µM; in series [2] (setting [3]), 5.38 ± 0.07 µM.

Consider “(Z) 5-(4-hydroxy-3-methoxybenzylidene)-3-(2-pyrrolidino-2-oxoethyl)-2-thioxothiazolidin-4-one [Compound 3g]”, for which the IC50 worked out at 2.42 ± 0.03 µM in series [1] and 2.22 ± 0.04 µM in series [2] (setting [3]).

`COc1cc(/C=C2\SC(=S)N(CC(=O)N3CCOCC3)C2=O)ccc1O` [Compound 3b, (Z)-5-(4-hydroxy-3-methoxybenzylidene)-3-(2-morpholino-2-oxoethyl)-2-thioxothiazolidin-4-one] came in with a melting point of 211 to 213 °C. Moreover, the IC50 in series [1] was 19.2 ± 0.08 µM. For the same compound, the IC50 in series [2] (setting [3]) stood at 6.07 ± 0.05 µM.

As to `CCCC(CCC)C(=O)O` [Valproic acid, reference compound], the midpoint of inhibition in series [2], the IC50, lay at 57.4 ± 0.89 µM.

Take `COc1ccc(/C=C2\SC(=S)N(CC(=O)N3CCOCC3)C2=O)cc1` [Compound 3f, (Z) 5-(4-methoxybenzylidene)-3-(2-morpholino-2-oxoethyl)-2-thioxothiazolidin-4-one]: the melting point is 203 to 205 °C. For the same compound, the “selectivity towards ALR2 over ALR1” value in series [1] (from IC50 values on ALR1 and ALR2) is recorded as “selective towards ALR2”. In series [1], the 50% inhibitory concentration (IC50) was 0.12 ± 0.01 µM. Further, the IC50 in series [2] (setting [3]) was found to be 2.18 ± 0.03 µM.

In the case of `COc1ccc(/C=C2\SC(=S)N(CC(=O)Nc3ccccc3)C2=O)cc1` [Compound 3e, (Z) 5-(4-methoxybenzylidene)-3-(2-anilino-2-oxoethyl)-2-thioxothiazolidin-4-one], the melting point is 190 to 192 °C. Further, in series [1], the IC50 turned out to be 12.71 ± 0.09 µM. For the same compound, in series [2], the “selectivity towards ALR1 over ALR2” value was “more selective and potent inhibitors of ALR1”. Besides, the IC50 in series [2] (setting [3]) was 2.87 ± 0.01 µM.

These data come from PMC8080350, “Rhodanine-3-acetamide derivatives as aldose and aldehyde reductase inhibitors to treat diabetic complications: synthesis, biological evaluation, molecular docking and simulation studies” (BMC Chemistry, 2021).
